{"source": "patent US20260125400A1", "about": "“TYK2 DEGRADERS AND USES THEREOF” (Kymera Therapeutics, Inc., priority 2023, published 2026)", "target": "T1, TYK2 (Homo sapiens, UniProt P29597)", "T1 construct": "Degradation of TYK2 in cells was quantitatively measured using Meso Scale Discovery (MSD) technology; endogenous in cells; host or cells: OCI-LY10", "T1 sequence (P29597 whole entry)": "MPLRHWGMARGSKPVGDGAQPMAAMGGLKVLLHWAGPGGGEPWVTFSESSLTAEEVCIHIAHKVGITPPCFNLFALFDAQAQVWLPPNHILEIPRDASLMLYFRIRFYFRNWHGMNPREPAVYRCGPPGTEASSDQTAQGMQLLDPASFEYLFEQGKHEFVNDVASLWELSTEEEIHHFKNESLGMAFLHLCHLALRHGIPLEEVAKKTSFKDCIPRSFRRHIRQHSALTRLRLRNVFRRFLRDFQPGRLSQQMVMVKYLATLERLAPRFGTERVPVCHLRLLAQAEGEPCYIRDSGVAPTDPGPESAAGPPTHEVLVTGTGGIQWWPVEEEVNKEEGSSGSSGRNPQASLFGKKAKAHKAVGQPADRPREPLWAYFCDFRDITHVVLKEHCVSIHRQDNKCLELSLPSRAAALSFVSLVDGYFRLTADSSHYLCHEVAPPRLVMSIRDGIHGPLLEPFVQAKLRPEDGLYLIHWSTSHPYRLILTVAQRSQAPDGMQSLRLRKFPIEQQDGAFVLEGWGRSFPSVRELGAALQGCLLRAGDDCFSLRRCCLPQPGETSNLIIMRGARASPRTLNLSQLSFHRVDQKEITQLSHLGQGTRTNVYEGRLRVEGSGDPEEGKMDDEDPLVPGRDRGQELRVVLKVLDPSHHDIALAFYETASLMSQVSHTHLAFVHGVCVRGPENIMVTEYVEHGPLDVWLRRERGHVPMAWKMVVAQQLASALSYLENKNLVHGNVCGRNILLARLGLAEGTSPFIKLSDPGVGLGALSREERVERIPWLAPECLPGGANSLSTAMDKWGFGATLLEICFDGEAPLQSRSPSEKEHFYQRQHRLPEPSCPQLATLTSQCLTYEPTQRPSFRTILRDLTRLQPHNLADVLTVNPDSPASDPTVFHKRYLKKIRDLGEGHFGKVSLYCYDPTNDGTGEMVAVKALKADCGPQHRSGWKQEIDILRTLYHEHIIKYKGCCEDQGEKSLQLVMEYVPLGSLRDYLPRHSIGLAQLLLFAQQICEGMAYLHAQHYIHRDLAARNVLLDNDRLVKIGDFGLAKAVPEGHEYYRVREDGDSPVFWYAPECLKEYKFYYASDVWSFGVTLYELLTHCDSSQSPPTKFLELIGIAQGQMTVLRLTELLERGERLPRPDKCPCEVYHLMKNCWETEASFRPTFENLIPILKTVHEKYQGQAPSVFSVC", "assay": "TYK2 MSD degradation in OCI-LY10 cells", "assay_type": "cell-based", "details": "4 to 24 hours incubation; for DC50: read-out: TYK2 MSD OCI-LY10 Rel-DC50", "procedure,_shortened": "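Cellular TYK2 levels were measured by Meso Scale Discovery sandwich detection in RIPA lysates of OCI-LY10 cells exposed 4 to 24 hours at 37° C to nine 1:3 compound doses starting at 1 to 10 μM final; dose-response fitted by four-parameter regression.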", "key": {"[1]": {"details": "TYK2 degradation in OCI-LY10 cells"}}, "note": "Like-named read-outs stand apart in the source and are kept apart here.", "data": [{"smiles": "CNc1cc(N2CCc3c2cccc3C23CC(CN4CC5(CCN(C(=O)c6ccc(Cl)c(N7CCC(=O)NC7=O)c6)CC5(F)F)C4)(C2)C3)nn2c(C(=O)N[C@@H]3C[C@@H]3F)cnc12", "note": "[I-897]", "values": [{"measurement": "TYK2 MSD OCI-LY10 Dmax %", "setting": "[1]", "result": "B (B (90 to >75%))"}, {"measurement": "DC50", "setting": "[1]", "result": "< 10", "unit": "nM"}]}, {"smiles": "CNc1cc(N2CCc3c(CN4CCC(N5CCC(N6CCN(c7ccc8c(c7)n(C)c(=O)n8C7CCC(=O)NC7=O)CC6)CC5)C(F)(F)C4)cccc32)nn2c(C(=O)N[C@@H]3C[C@@H]3F)cnc12", "note": "(stereo partly shown) [I-347]", "values": [{"measurement": "TYK2 MSD OCI-LY10 Dmax %", "setting": "[1]", "result": "B (B (90 to >75%))"}, {"measurement": "DC50", "setting": "[1]", "result": "< 1", "unit": "nM"}]}, {"smiles": "CNc1cc(N2CCc3c(C#CCN4CCC(N5CCC6(CCN(c7ccc8c(c7)n(C)c(=O)n8C7CCC(=O)NC7=O)CC6)CC5)C(F)(F)C4)cccc32)nn2c(C(=O)N[C@@H]3C[C@@H]3F)cnc12", "note": "(stereo partly drawn) [I-486, 6-(4-(3-(4-(9-(1-(2,6-Dioxopiperidin-3-yl)-3-methyl-2-oxo-2,3-dihydro-LH-benzo[d]imidazol-5-yl)-3,9-diazaspiro[5.5]undecan-3-yl)-3,3-difluoropiperidin-1-yl)prop-1-yn-1-yl)indolin-1-yl)-N-((1R,2S)-2-fluorocyclopropyl)-8-(methylamino)imidazo[1,2-b]pyridazine-3-carboxamide]", "values": [{"measurement": "Dmax", "setting": "OCI-LY10 cells", "result": "75 to 90", "unit": "%"}, {"measurement": "DC50", "setting": "OCI-LY10 cells", "result": "< 10", "unit": "nM"}]}, {"smiles": "CNc1cc(N2CCc3c(CN4CCC(N5CCC6(CCN(C(=O)c7ccc(Cl)c(N8CCC(=O)NC8=O)c7)C6)C5)C(F)(F)C4)cccc32)nn2c(C(=O)N[C@@H]3C[C@@H]3F)cnc12", "note": "(stereo partly shown) [I-811]", "values": [{"measurement": "TYK2 MSD OCI-LY10 Dmax %", "setting": "[1]", "result": "A (A (>90%))"}, {"measurement": "DC50", "setting": "[1]", "result": "< 1", "unit": "nM"}]}, {"smiles": "CNc1cc(N2CCc3c(CN4CCC(N5CCC(C6CCN(C(=O)c7cc(C)c(Cl)c(N8CCC(=O)NC8=O)c7)CC6)CC5)C(F)(F)C4)cccc32)nn2c(C(=O)N[C@@H]3CC[C@H]3OC)cnc12", "note": "(stereo partly shown) [I-1066]", "values": [{"measurement": "TYK2 MSD OCI-LY10 Dmax %", "setting": "[1]", "result": "A (A (>90%))"}, {"measurement": "DC50", "setting": "[1]", "result": "< 1", "unit": "nM"}]}, {"smiles": "CNc1cc(N2CCc3c(-c4ccc(CN5CCC6(CCC(COc7ccc(N8CCC(=O)NC8=O)c(Cl)c7)CC6)CC5)cn4)cccc32)nn2c(C(=O)N[C@@H]3C[C@@H]3F)cnc12", "note": "[I-339]", "values": [{"measurement": "TYK2 MSD OCI-LY10 Dmax %", "setting": "[1]", "result": "D (D (<50%))"}, {"measurement": "DC50", "setting": "[1]", "result": "< 10", "unit": "nM"}]}, {"smiles": "CNc1cc(N2CCc3c(-c4ccc(CN5CC6(CCN(C(=O)c7cc(C)c(Cl)c(N8CCC(=O)NC8=O)c7)CC6(F)F)C5)cn4)cccc32)nn2c(C(=O)N[C@H]3CCC[C@@H]3OC)cnc12", "note": "[I-1117]", "values": [{"measurement": "TYK2 MSD OCI-LY10 Dmax %", "setting": "[1]", "result": "D (D (<50%))"}, {"measurement": "DC50", "setting": "[1]", "result": "> 100", "unit": "nM"}]}, {"smiles": "CNc1cc(N2CCc3c(CN4CCC(N5CCC6(CCN(C(=O)c7cc(C)c(OC)c(N8CCC(=O)NC8=O)c7)CC6)CC5)C(F)(F)C4)cccc32)nn2c(C(=O)N[C@@H]3C[C@@H]3F)cnc12", "note": "(stereo partly shown) [I-749]", "values": [{"measurement": "TYK2 MSD OCI-LY10 Dmax %", "setting": "OCI-LY10 cells", "result": "B (B (90 to >75%))"}, {"measurement": "DC50", "setting": "OCI-LY10 cells", "result": "< 10", "unit": "nM"}]}, {"smiles": "CNc1cc(N2CCc3c(-c4ccc(CN5CC6(CCN(C(=O)c7cncc(N8CCC(=O)NC8=O)c7)CC6)C5)cn4)cccc32)nn2c(C(=O)N[C@@H]3C[C@@H]3F)cnc12", "note": "[I-353]", "values": [{"measurement": "TYK2 MSD OCI-LY10 Dmax %", "setting": "[1]", "result": "D (D (<50%))"}, {"measurement": "DC50", "setting": "[1]", "result": "> 100", "unit": "nM"}]}, {"smiles": "CNc1cc(N2CCc3c(-c4ccc(CN5CCC6(CC5)CCN(C(=O)c5ccc(Cl)c(N7CCC(=O)NC7=O)c5)C6)cn4)cccc32)nn2c(C(=O)N[C@H]3C[C@H]3F)cnc12", "note": "[I-82]", "values": [{"measurement": "TYK2 MSD OCI-LY10 Dmax %", "setting": "[1]", "result": "B (B (90 to >75%))"}, {"measurement": "DC50", "setting": "[1]", "result": "< 1", "unit": "nM"}]}, {"smiles": "COC1(c2cc(-c3ccc(CN4CCC5(CC4)CCN(C(=O)c4ccc(Cl)c(N6CCC(=O)NC6=O)c4)CC5)cn3)cc(-c3cn(C)c4cnc(NC(C)=O)cc34)n2)CCOC1", "note": "(stereo not shown) [I-848]", "values": [{"measurement": "TYK2 MSD OCI-LY10 Dmax %", "setting": "[1]", "result": "A (A (>90%))"}, {"measurement": "DC50", "setting": "[1]", "result": "< 1", "unit": "nM"}]}, {"smiles": "CNc1cc(N2CCc3c(N4CCC(CN5CC6(CCN(Cc7ccc(Cl)c(N8CCC(=O)NC8=O)c7)CC6(F)F)C5)CC4)cccc32)nn2c(C(=O)N[C@@H]3C[C@@H]3F)cnc12", "note": "[I-899]", "values": [{"measurement": "TYK2 MSD OCI-LY10 Dmax %", "setting": "[1]", "result": "D (D (<50%))"}, {"measurement": "DC50", "setting": "[1]", "result": "> 100", "unit": "nM"}]}, {"smiles": "CNc1cc(N2CCc3c(N4CCN(C5CN(C6CCN(C(=O)c7ccc(Cl)c(N8CCC(=O)NC8=O)c7)CC6)C5)CC4)cccc32)nn2c(C(=O)N[C@@H]3C[C@@H]3F)cnc12", "note": "[I-288]", "values": [{"measurement": "TYK2 MSD OCI-LY10 Dmax %", "setting": "[1]", "result": "D (D (<50%))"}, {"measurement": "DC50", "setting": "[1]", "result": "> 100", "unit": "nM"}]}, {"smiles": "CNc1cc(N2CCc3c(CN4CCC(N5CC6(CCN(C(=O)c7cc(C)c(Cl)c(N8CCC(=O)NC8=O)c7)CC6)C5)C(F)(F)C4)cccc32)nn2c(C(=O)N[C@@H]3CC[C@H]3OC)cnc12", "note": "(stereo partly shown) [I-1073]", "values": [{"measurement": "TYK2 MSD OCI-LY10 Dmax %", "setting": "[1]", "result": "A (A (>90%))"}, {"measurement": "DC50", "setting": "[1]", "result": "< 1", "unit": "nM"}]}]}
